Experiments:
THP-1 cells = assay: Viability of acute myeloid leukaemia cell line THP-1; assay type: cell-based, human; conditions: 5-30 μM, 48 h
Procedure: THP-1 cells were seeded in medium at 10,000 cells/well, as indicated by the dotted line. Cells were incubated for 48 hours in medium supplemented with water, C3A-Pen, P7-Pen, P7-A4-Pen or P7-N4-Pen. The peptides were included at concentrations ranging from 5-30 μM. At 48 hours cells were counted. […] The results with other peptides were less clear-cut. Results are based on 3 biological replicates, error bars show standard deviation of mean.
The peptides were tested against the SW480 cell line in the presence and absence of LPS.

[1] = test system: THP-1 WT cells and THP-1 TRAM^CHERRY; assay: Confocal analysis of bacterial bioparticle uptake by THP-1 cells; assay type: cell-based, human; conditions: 15 μM, 30 min pre-incubation
Procedure: Cells were pre-incubated with Pen or P7-Pen peptides, followed by addition of Alexa Fluor 488-labeled bioparticles for the times indicated (15, 30 or 45 min). Fluorescent bacteria particles were counted by spot-detection in Bitplane Imaris imaging software and used to calculate the number of particles per cell. […] Pre-incubation with 3 μM cytochalasin D (CytoD, and inhibitor of actin polymerization) inhibited uptake of E. coli to a similar extent as P7-Pen.
THP-1 cells, THP-1^cherry cells or human PBMC were seeded in 24-well glass-bottom plates (MatTek Corporation), 125,000 cells/well. The THP-1 cells were differentiated into macrophages with 60 ng/ml PMA for 72 h and thereafter rested for 48 h, whereas the PBMC were used the day after isolation. The P7-penatratin peptide or control peptide was added to the cells 30 min before stimulation at 15 μM concentration. If used, 3 μM cytochalasin D (CytoD) was added simultaneously. […] A spot detection mode in the Bitplan Imaris software was used to define individual phagosomes and cells were counted manually. […] Fluorescence voxel intensity of TRAM^cherry at the phagosome is also presented. Statistical significance was calculated in GraphPad Prism by One-way ANOVA Kruskal-Wallis multiple comparison test. […]

TLR7 = assay: qPCR of R837-induced TLR7-mediated cytokine expression in human monocytes; assay type: cell-based; conditions: 15 μM, R837 1 μg/ml
Procedure: Cells were pre-treated with 15 μM peptides for 30 min, followed by the addition of LPS (100 ng/ml) (A), R837 (1 μg/ml) (B) or CL075 (1 μg/ml) for increasing lengths of time.
As previously shown, P7-Pen inhibits TLR8-mediated IFNβ expression in human monocytes, without significant effect on the expression of pro-inflammatory cytokines. Human cells express one more endosomal RNA sensor in addition to TLR8: TLR7, which uses similar signaling pathways to induce cytokine expression as the TLR8 receptor. To investigate the effect of P7-Pen on TLR7-mediated signaling, human monocytes were stimulated with imiquimod (R837), an imidazoquinoline amine analog to guanosine, which activates only TLR7, not TLR8 (Lee et al., PNAS 100(11): 6646-6651 (2003)). […] TNF and IL-1β expression were not induced in monocytes by the R837 TLR7 agonist even in control treated cells (FIG. 18C).

Ac-ITVAASVTLTGRQIKIWFQNRRMKWKK-NH2 [Peptide P7-A4-Pen]
effect on THP-1 cell number (THP-1 cells): anti-proliferative effect

Ac-ITVYASVTLTGRQIKIWFQNRRMKWKK-NH2 [Peptide P7-Pen]
uptake of S. aureus bioparticles ([1]; THP-1 TRAM^CHERRY): inhibited | uptake of E. coli particles ([1]; THP-1 WT and THP-1 TRAM^CHERRY): inhibited | TLR7-mediated IFNβ mRNA expression (TLR7): inhibits | TLR7-mediated IL-6 expression (TLR7): delayed activation
